# Results as given in patent publication US10894798B2, “Substituted dihydropyrrolopyrazole derivative” (UBE INDUSTRIES, LTD., priority 2015, dated 2021).
# How the values were obtained:
# [1] = biological target: T1, CDK7 (Homo sapiens, UniProt P50613); assay: CDK7 enzyme inhibition test; format: biochemical; conditions: [γ-33P]ATP, MBP substrate, 60 min preincubation at 25°C; Ki=IC50/(1+S/Km); read-out: Ki value of CDK7 inhibitory activity
# T1 construct: purchased Carna Biosciences, Inc. 04-108
# T1 sequence (P50613 whole entry): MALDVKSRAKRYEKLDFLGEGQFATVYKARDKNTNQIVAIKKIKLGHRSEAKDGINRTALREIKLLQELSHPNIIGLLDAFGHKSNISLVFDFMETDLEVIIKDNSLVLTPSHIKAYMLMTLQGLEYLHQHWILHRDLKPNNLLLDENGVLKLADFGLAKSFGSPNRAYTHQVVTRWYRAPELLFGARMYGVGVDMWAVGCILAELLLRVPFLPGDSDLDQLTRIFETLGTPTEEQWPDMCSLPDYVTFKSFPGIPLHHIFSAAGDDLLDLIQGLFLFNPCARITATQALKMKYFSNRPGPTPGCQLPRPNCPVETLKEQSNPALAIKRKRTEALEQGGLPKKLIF
# T1 sequence (P51946 whole entry partner): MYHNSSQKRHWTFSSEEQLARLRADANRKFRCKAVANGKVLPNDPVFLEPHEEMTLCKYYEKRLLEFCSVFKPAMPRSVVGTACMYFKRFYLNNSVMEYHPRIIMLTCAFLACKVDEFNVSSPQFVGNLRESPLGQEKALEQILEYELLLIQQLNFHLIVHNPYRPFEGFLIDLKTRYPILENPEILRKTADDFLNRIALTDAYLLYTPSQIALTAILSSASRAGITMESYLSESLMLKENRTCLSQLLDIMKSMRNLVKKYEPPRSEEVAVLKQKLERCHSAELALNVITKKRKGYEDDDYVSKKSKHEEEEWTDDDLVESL
# T1 sequence (P51948 whole entry partner): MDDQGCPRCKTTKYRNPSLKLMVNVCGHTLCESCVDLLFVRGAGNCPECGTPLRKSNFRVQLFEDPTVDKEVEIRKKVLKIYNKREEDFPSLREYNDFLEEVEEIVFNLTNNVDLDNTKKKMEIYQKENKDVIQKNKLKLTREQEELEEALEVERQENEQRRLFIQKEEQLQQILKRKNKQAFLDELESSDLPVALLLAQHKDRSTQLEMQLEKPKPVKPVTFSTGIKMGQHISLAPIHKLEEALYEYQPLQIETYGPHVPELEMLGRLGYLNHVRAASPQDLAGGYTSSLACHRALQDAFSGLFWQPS
# Experimental: The preparation of a buffer solution was performed by mixing a N-2-hydroxyethylpiperazine-N′-2-ethanesulfonic acid buffer solution (HEPES buffer solution) (pH 7.4), dithiothreitol (DTT), Triton X-100, and magnesium chloride (MgCl2). A 500 μM [γ-^33P]ATP solution was used by diluting a 10 mM ATP solution and a commercially available [γ-^33P]ATP solution (manufactured by PerkinElmer, Inc., Code No. NEG-302H) with the buffer solution. A CDK7 solution was used by diluting commercially available CDK7 (manufactured by Carna Biosciences, Inc., Catalog No. 04-108) with the buffer solution. A substrate solution was used by diluting myelin basic protein (MBP) with the buffer solution. As for the preparation of a reaction solution, the buffer solution, the CDK7 solution, and the substrate solution were mixed at 4° C. to obtain a reaction solution.
# CDK7 enzyme reaction was performed by adding 5 μL of a test compound solution prepared with 10% DMSO/90% injectable distilled water, and 40 μL of the reaction solution to a 1.5 mL microtube at 4° C. and preincubating the microtube at 25° C. for 60 minutes in a water bath incubator. Subsequently, reaction was performed at 30° C. for 20 minutes by adding 5 μL of the 500 μM [γ-^33P]ATP solution. After the reaction, a 10% aqueous trichloroacetic acid (TCA) solution was added to each microtube while cooled to 4° C., and mixed in a vortex mixer to terminate the reaction. The resultant was left standing at 4° C. for 10 minutes and then centrifuged, and the supernatant was discarded. Next, a 2% aqueous trichloroacetic acid (TCA) solution was added thereto, mixed in a vortex mixer, and then centrifuged, and the supernatant was discarded. This washing operation was performed twice. After the washing, precipitates were dissolved in a 1 N aqueous sodium hydroxide (NaOH) solution, and the energy quantity (radioactivity) of the reaction product was measured with a liquid scintillation counter.
# The calculation of the inhibitory activity of the test compound against CDK7 was performed as a test compound concentration inhibiting 50% of the amount of ^33P bound to MBP (IC50 value) by using EXSUS (version 8.1.0, manufactured by CAC Exicare Corp.).
# The calculation of a Ki value was performed according to the following calculation expression wherein S represents the concentration of ATP contained in the reaction solution, and Km represents a Michaelis-Menten constant: Ki=IC50/(1+S/Km)
# [2] = test system: human large intestine cancer cell line (HCT-116); assay: Human large intestine cancer (HCT-116) cell growth inhibition test; format: cell-based; conditions: HCT-116, 72 h, culture for 3 days, sulforhodamine B, read-out: GI50 value, HCT-116 cell growth inhibition
# Experimental: The measurement of a human large intestine cancer cell growth inhibitory effect was carried out by modifying the method of Simak et al. (Cancer Research, 69, 6208 (2009)).
# A human large intestine cancer cell line (HCT-116, obtained from DS Pharma Biomedical Co., Ltd.) was cultured in a McCoy's 5A medium (manufactured by Thermo Fisher Scientific, Inc.) containing 10% fetal bovine serum (FBS) (manufactured by Thermo Fisher Scientific, Inc.) and 1% penicillin/streptomycin/amphotericin B (manufactured by Thermo Fisher Scientific, Inc.) and inoculated at 0.5 to 2.0×10^3 cells/well in a 96-well plate. After overnight culture in a carbon dioxide incubator, the medium was replaced with a fresh medium on the next day, and a test compound dissolved in DMSO (final DMSO concentration: 0.1%) was added thereto and left standing in a carbon dioxide incubator. After culture for 3 days, the absorbance thereof was measured by using In Vitro Toxicology Assay Kit Sulforhodamine B based (manufactured by Sigma-Aldrich Co. LLC.).
# The rate of inhibition of cell growth at each concentration was calculated from the test compound concentration and the absorbance of sulforhodamine B, and the concentration of the test compound necessary for inhibiting 50% of cell growth (GI50 value) was calculated by using EXSUS (version 8.1.0, manufactured by CAC Exicare Corp.).
Ki [1] [µM],Compound,GI50 [2] [µM]
≤ 0.05,"CC1(C)c2[nH]nc(NC(=O)C3([Si](C)(C)C)CCC3)c2CN1C(=O)Nc1ccc(F)cc1F [IV-101, N-(2,4-Difluorophenyl)-6,6-dimethyl-3-[1-(trimethylsilyl)cyclobutanecarboxamido]-4,6-dihydropyrrolo[3,4-c]pyrazole-5(1H)-carboxamide]",≤ 0.1
,"COc1ccc(Cl)c(NC(=O)N2Cc3c(NC(=O)C4([Si](C)(C)C)CCC4)n[nH]c3C2(C)C)c1 [IV-245, N-(2-Chloro-5-methoxyphenyl)-6,6-dimethyl-3-[1-(trimethylsilyl)cyclobutanecarboxamido]-4,6-dihydropyrrolo[3,4-c]pyrazole-5(1H)-carboxamide]",≤ 0.1
≤ 0.05,"Cc1nscc1NC(=O)N1Cc2c(NC(=O)C3([Si](C)(C)C)CCC3)n[nH]c2C1(C)C [IV-1035, 6,6-Dimethyl-N-(3-methylisothiazol-4-yl)-3-[1-(trimethylsilyl)cyclobutanecarboxamido]-4,6-dihydropyrrolo[3,4-c]pyrazole-5 (1H)-carboxamide]",≤ 0.1
,"CC1(C)c2[nH]nc(NC(=O)C3([Si](C)(C)C)CCC3)c2CN1C(=O)Nc1cccc(F)c1 [IV-5, N-(3-Fluorophenyl)-6,6-dimethyl-3-[1-(trimethylsilyl)cyclobutanecarboxamido]-4,6-dihydropyrrolo[3,4-c]pyrazole-5(1H)-carboxamide]",≤ 0.1
≤ 0.05,"Cc1cccc(NC(=O)N2Cc3c(NC(=O)C4([Si](C)(C)C)CCC4)n[nH]c3C2(C)C)c1 [IV-23, 6,6-Dimethyl-N-(m-tolyl)-3-[1-(trimethylsilyl)cyclobutanecarboxamido]-4,6-dihydropyrrolo[3,4-c]pyrazole-5(1H)-carboxamide]",≤ 0.1
≤ 0.05,"CC1(C)c2[nH]nc(NC(=O)C3([Si](C)(C)C)CCC3)c2CN1C(=O)Nc1ccccc1OC(F)(F)F [IV-93, 6,6-Dimethyl-N-[2-(trifluoromethoxy)phenyl]-3-[1-(trimethylsilyl)cyclobutanecarboxamido]-4,6-dihydropyrrolo[3,4-c]pyrazole-5(1H)-carboxamide]",≤ 0.1
≤ 0.05,"Cc1cccc(Br)c1NC(=O)N1Cc2c(NC(=O)C3([Si](C)(C)C)CC3)n[nH]c2C1(C)C [III-299, N-(2-Bromo-6-methylphenyl)-6,6-dimethyl-3-[1-(trimethylsilyl)cyclopropanecarboxamido]-4,6-dihydropyrrolo[3,4-c]pyrazole-5(1H)-carboxamide]",≤ 0.1
≤ 0.05,"CC1(C)c2[nH]nc(NC(=O)C3([Si](C)(C)C)CCC3)c2CN1C(=O)Nc1cc(F)ccc1F [IV-103, N-(2,5-Difluorophenyl)-6,6-dimethyl-3-[1-(trimethylsilyl)cyclobutanecarboxamido]-4,6-dihydropyrrolo[3,4-c]pyrazole-5(1H)-carboxamide]",≤ 0.1
≤ 0.05,"Cc1ccc(NC(=O)N2Cc3c(NC(=O)C4([Si](C)(C)C)CCC4)n[nH]c3C2(C)C)c(F)c1 [IV-125, N-(2-Fluoro-4-methylphenyl)-6,6-dimethyl-3-[1-(trimethylsilyl)cyclobutanecarboxamido]-4,6-dihydropyrrolo[3,4-c]pyrazole-5 (1H)-carboxamide]",≤ 0.1
,"CC[Si](C)(C)C1(C(=O)Nc2n[nH]c3c2CN(C(=O)Nc2ccccc2F)C3(C)C)CCC1 [IV-4, 3-[1-(Ethyldimethylsilyl)cyclobutanecarboxamido]-N-(2-fluorophenyl)-6,6-dimethyl-4,6-dihydropyrrolo[3,4-c]pyrazole-5(1H)-carboxamide]",≤ 0.1
,"CC1(C)c2[nH]nc(NC(=O)C3([Si](C)(C)C)CCC3)c2CN1C(=O)Nc1cc(F)ccc1Cl [IV-191, N-(2-Chloro-5-fluorophenyl)-6,6-dimethyl-3-[1-(trimethylsilyl)cyclobutanecarboxamido]-4,6-dihydropyrrolo[3,4-c]pyrazole-5 (1H)-carboxamide]",≤ 0.1
,"Cc1cccc(NC(=O)N2Cc3c(NC(=O)C4([Si](C)(C)C)CCC4)n[nH]c3C2(C)C)c1F [IV-123, N-(2-Fluoro-3-methylphenyl)-6,6-dimethyl-3-[1-(trimethylsilyl)cyclobutanecarboxamido]-4,6-dihydropyrrolo[3,4-c]pyrazole-5 (1H)-carboxamide]",≤ 0.1
≤ 0.05,"CN(C(=O)N1Cc2c(NC(=O)C3([Si](C)(C)C)CCC3)n[nH]c2C1(C)C)c1ccccc1 [I-965, N,6,6-Trimethyl-N-phenyl-3-[1-(trimethylsilyl)cyclobutanecarboxamido]-4,6-dihydropyrrolo[3,4-c]pyrazole-5(1H)-carboxamide]",
≤ 0.05,"CC1(C)c2[nH]nc(NC(=O)C3([Si](C)(C)C)CCC3)c2CN1C(=O)Nc1cccnc1 [IV-1019, 6,6-Dimethyl-N-(pyridin-3-yl)-3-[1-(trimethylsilyl)cyclobutanecarboxamido]-4,6-dihydropyrrolo[3,4-c]pyrazole-5(1H)-carboxamide]",
,"Cc1ccc(NC(=O)N2Cc3c(NC(=O)C4([Si](C)(C)C)CCC4)n[nH]c3C2(C)C)cc1 [IV-25, 6,6-Dimethyl-N-(p-tolyl)-3-[1-(trimethylsilyl)cyclobutanecarboxamido]-4,6-dihydropyrrolo[3,4-c]pyrazole-5(1H)-carboxamide]",≤ 0.1
,"Cc1ccc(Cl)c(NC(=O)N2Cc3c(NC(=O)C4([Si](C)(C)C)CCC4)n[nH]c3C2(C)C)c1 [IV-213, N-(2-Chloro-5-methylphenyl)-6,6-dimethyl-3-[1-(trimethylsilyl)cyclobutanecarboxamido]-4,6-dihydropyrrolo[3,4-c]pyrazole-5 (1H)-carboxamide]",≤ 0.1
,"CCOc1ccccc1NC(=O)N1Cc2c(NC(=O)C3([Si](C)(C)C)CCC3)n[nH]c2C1(C)C [IV-81, N-(2-Ethoxyphenyl)-6,6-dimethyl-3-[1-(trimethylsilyl)cyclobutanecarboxamido]-4,6-dihydropyrrolo[3,4-c]pyrazole-5(1H)-carboxamide]",≤ 0.1
,"CC1(C)c2[nH]nc(NC(=O)C3([Si](C)(C)C)CCC3)c2CN1C(=O)Nc1cc(Cl)ccc1Cl [IV-197, N-(2,5-Dichlorophenyl)-6,6-dimethyl-3-[1-(trimethylsilyl)cyclobutanecarboxamido]-4,6-dihydropyrrolo[3,4-c]pyrazole-5(1H)-carboxamide]",≤ 0.1
,"CC1(C)c2[nH]nc(NC(=O)C3([Si](C)(C)C)CCC3)c2CN1C(=O)Nc1cccc(Cl)c1 [IV-11, N-(3-Chlorophenyl)-6,6-dimethyl-3-[1-(trimethylsilyl)cyclobutanecarboxamido]-4,6-dihydropyrrolo[3,4-c]pyrazole-5(1H)-carboxamide]",≤ 0.1
≤ 0.05,"Cc1cccc(Br)c1NC(=O)N1Cc2c(NC(=O)C(C)(C)[Si](C)(C)C)n[nH]c2C1(C)C [II-290, N-(2-Bromo-6-methylphenyl)-6,6-dimethyl-3-[2-methyl-2-(trimethylsilyl)propanamido]-4,6-dihydropyrrolo[3,4-c]pyrazole-5(1H)-carboxamide]",

Compound,Ki [1] [µM],GI50 [2] [µM]
"Cc1cccc(NC(=O)N2Cc3c(NC(=O)C4([Si](C)(C)C)CCC4)n[nH]c3C2(C)C)c1C [IV-375, N-(2,3-Dimethylphenyl)-6,6-dimethyl-3-[1-(trimethylsilyl)cyclobutanecarboxamido]-4,6-dihydropyrrolo[3,4-c]pyrazole-5(1H)-carboxamide]",≤ 0.05,≤ 0.1
